{"source": "patent US8759403B2", "about": "“Curcuminoids and its metabolites for the application in allergic ocular/nasal conditions” (Laila Pharmaceutical Pvt. Ltd., priority 2009, dated 2014)", "origin": "cited, not measured here", "key": {"murine model of allergy": {"system": "murine model of allergy", "details": "mouse, in vivo"}, "guinea pigs": {"system": "guinea pigs", "details": "20 mg/kg body weight"}}}
{"compound": "COc1cc(/C=C/C(=O)CC(=O)/C=C/c2ccc(O)c(OC)c2)ccc1O", "note": "[curcumin]", "values": [{"measurement": "allergic response in treated animals", "setting": "murine model of allergy", "value": "marked inhibition of allergic response"}, {"measurement": "airway hyper reactivity", "setting": "guinea pigs; p<0.0043", "value": "significantly inhibits"}, {"measurement": "OVA-induced airway constriction", "setting": "guinea pigs; p<0.0399", "value": "significantly inhibits"}, {"measurement": "histamine release from mast cells", "setting": "mast cells", "value": "inhibitory effect"}]}
